Data set [1] deals with T1, human D1R (Homo sapiens, UniProt P21728).
T1 construct: endogenously expressed human D1R in the SK-N-MC cell line (ATCC); host or cells: SK-N-MC human neuroblastoma cells
Nature of the data set: potentiator-mode cAMP assay (HTRF) in SK-N-MC neuroblastoma cells endogenously expressing human D1R. Type of data set: cell-based. As to conditions: no DA. On the technique in general: Changes in cAMP serve as a functional read-out for many G protein-coupled receptors.

Data set [2] concerns reserpinized C57BL/6 mice. Briefly: locomotor activity in reserpinized mice. The data set is classed as in vivo, mouse. The conditions noted are these: reserpine 2.5 mg/kg sc; 26 30 mg/kg po; L-DOPA 100 or 400 mg/kg ip. As for the experimental part: The study was carried out in male C57BL/6 wild-type (22–25 g) mice that were acclimatized for 5 days. Animals were randomized based on body weight into six groups (G1 to G6), ten animals per group (n = 10), being group G1 the naïve control group. Animals were fed with standard diet ad libitum. Animals were dosed with subcutaneous administration of reserpine (2.5 mg/kg in DMSO/saline) and after 20 h they were treated with a vehicle (10 mL/kg, po), compound 26 (30 mg/kg, po), L-DOPA (100 or 400 mg/kg, ip) + carbidopa (100 mg/kg, ip) and/or their combination, as indicated in Figure 7. The vehicle employed for compound 26 administration was 5% NMP + 5% solutol HS-15 + 90% normal saline. L-DOPA and carbidopa were administered 30 min prior to start of locomotor activity recording. Compound 26 was administered and 15 min later, mice were placed in the locomotor activity cage to measure the locomotor activity for 60 min (total distance travelled) using ALL Maze version 0.5 automated software enabled with video tracking system. After the activity sessions, raw data were reduced using ALL Maze 5.0 software and Microsoft Excel. Statistical analysis was done with GraphPad Prism-5 using one way ANOVA followed by Dunnett’s test/Tukey’s post hoc test and/or two-way ANOVA followed by Bonferroni post hoc test. Data were considered statistically significant, if P value was less than 0.05.

In data set [3] the target is T1, human D1R. Briefly: potentiator-mode cAMP assay (HTRF) in SK-N-MC neuroblastoma cells endogenously expressing human D1R. Type of data set: cell-based. The conditions noted are these: for Emax: SK-N-MC, read-out: % maximum increase (efficacy over DA EC70); for EC50: potency of the compound at the DA EC70 concentration. The procedure: An in-house chemical library of 250 compounds was screened using an in vitro assay measuring accumulation of cAMP in a human neuroblastoma SK-N-MC cell line stably expressing physiological levels of the D1R but not the D5R.[41] To assess allosteric modulation of the D1R, cells were treated with a fixed concentration of the test compounds (10 μM) for 15 min and then co-incubated with increasing concentrations of the endogenous agonist DA. The cAMP concentration was quantified by homogeneous time-resolved fluorescence energy transfer (HTRF) and the effect of each compound on the DA concentration–response curve was measured.
The PAM efficacy was measured as the percentage of increase over DA EC70 and the potency as the EC50 observed in the concentration–response curve.
Functional studies at human D1 and D2 receptors were carried out in endogenously expressed human D1R in the SK-N-MC cell line (ATCC), and recombinant human D2R stably transfected in an in-house CHO cell line. Cells were thawed and seeded into a black 96-well plate (1 × 10^4 cells/well for SK-N-MC cell line, 5 × 10^3 cells/well for CHO cell line) in Opti-MEM containing 500 μM IBMX (3-isobutyl-1-methylxanthine).

[4] abbreviates: concentration–response curve of the compound over DA EC70.

T1 sequence (P21728 whole entry): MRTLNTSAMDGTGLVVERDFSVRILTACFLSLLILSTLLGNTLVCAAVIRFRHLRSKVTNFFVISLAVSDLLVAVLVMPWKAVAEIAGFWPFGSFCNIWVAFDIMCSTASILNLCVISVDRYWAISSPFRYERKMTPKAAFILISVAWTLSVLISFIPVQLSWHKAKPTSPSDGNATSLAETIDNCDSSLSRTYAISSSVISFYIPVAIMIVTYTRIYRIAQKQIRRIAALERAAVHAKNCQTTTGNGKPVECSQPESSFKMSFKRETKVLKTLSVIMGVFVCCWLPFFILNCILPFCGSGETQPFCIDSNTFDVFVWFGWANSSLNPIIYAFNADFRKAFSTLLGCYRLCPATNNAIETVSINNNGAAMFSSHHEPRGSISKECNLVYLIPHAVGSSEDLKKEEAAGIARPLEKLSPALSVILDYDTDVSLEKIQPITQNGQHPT

Regarding `C[S@](=N)(=O)c1ccc(-c2ccccc2OCF)cc1` [(S)-26, (S)-2-(Fluoromethoxy)-4′-(S-methanesulfonimidoyl)-1,1′-biphenyl], the “cAMP response in the absence of DA (agonist activity)” value in data set [1] is “no agonist activity”.
On to `N[C@@H](Cc1ccc(O)c(O)c1)C(=O)O` [L-DOPA, reference compound], for which, in data set [2], the “recovery of decreased locomotor activity, substance alone” value is recorded as “small recovery of decreased locomotor activity”.
One may read the EC50 as the midpoint of the concentration-response curve. `O=Cc1ccc(-c2ccccc2OC(F)F)cc1` [Compound 7]: in data set [3] (setting [4]), the Emax turned out to be 62% and the “% maximum increase (efficacy over DA EC70)” value was determined as 62 ± 10%. Besides, the EC50 in data set [3] was 18.5 ± 2.7 µM.
As a reminder, the melting point is the temperature of the solid-liquid transition. `O=Cc1ccc(-c2ccccc2SC(F)F)cc1` [Compound 10, 2′-[(Difluoromethyl)sulfanyl][1,1′-biphenyl]-4-carbaldehyde] had a melting point of 46 to 47 °C. Moreover, in data set [3] (setting [4]), the Emax was 101 ± 10%. The EC50 in data set [3] is 21.8 ± 3.6 µM.
For `O=Cc1ccc(-c2ccc(OC(F)F)cc2)cc1` [Compound 5], in data set [3] (setting [4]), the Emax turned out to be 37 ± 5%. Moreover, the EC50 in data set [3] was 2.3 ± 0.4 µM.
The matching figures for `CCS(=N)(=O)c1ccc(-c2ccccc2OCF)cc1` (stereo not shown) [Compound 25]: 50 ± 7% and 30.2 ± 2.4 µM.
For `O=Cc1ccc(-c2cccc(OC(F)F)c2)cc1` [Compound 6], in that order: 35 ± 7% and 10.8 ± 1.6 µM.
The matching figures for `CN=S(C)(=O)c1ccc(-c2ccccc2OCF)cc1` (stereo not shown) [Compound 27]: 33 ± 3% and 15.9 ± 2.7 µM.
On to `C[S@@](=N)(=O)c1ccc(-c2ccccc2OCF)cc1` [Compound (R)-26, (R)-2-(Fluoromethoxy)-4′-(S-methanesulfonimidoyl)-1,1′-biphenyl], for which the “cAMP response in the absence of DA (agonist activity)” value in data set [1] is on record as “no agonist activity”.
As for `C[S+]([O-])c1ccc(-c2ccccc2OCF)cc1` (stereo not shown) [Compound 23], in data set [3] (setting [4]), the Emax turned out to be 73 ± 6%. The concentration for a half-maximal effect (EC50) in data set [3] was 21.7 ± 5.8 µM.
The matching figures for `CNS(=O)(=O)c1ccc(-c2ccccc2OCF)cc1` [Compound 19]: 28 ± 8% and 1.26 ± 0.7 µM.
The matching figures for `CS(=O)(=O)c1ccc(-c2ccccc2OCF)cc1` [Compound 20]: 30 ± 8% and 13.1 ± 2.8 µM.
For `NS(=O)(=O)c1ccc(-c2ccccc2OCF)cc1` [Compound 18], in that order: 42 ± 7% and 4.93 ± 1.2 µM.

The values above are taken from article PMC9511493, “2-(Fluoromethoxy)-4′-(S-methanesulfonimidoyl)-1,1′-biphenyl (UCM-1306), an Orally Bioavailable Positive Allosteric Modulator of the Human Dopamine D1 Receptor for Parkinson’s Disease” (Journal of Medicinal Chemistry, 2022).
